Test results published in patent US10723716B2, “Alpha-helix mimetics as modulators of Abeta self-assembly” (New York University, priority 2016, dated 2020).
Entries after “also recorded” stand apart in the source; their conditions may differ.

Columns and labels:
IAPP [1] = target: T1, IAPP (Homo sapiens, UniProt P10997); assay: ThT-based kinetic assay of IAPP aggregation; assay type: biochemical; details: for effect on IAPP fibrillation / amyloid formation (ThT): equimolar ratio (IAPP 10 μM, FIG. 25c, 26c, 27m)
T1 construct: purchased Anaspec (Fremont, Calif., USA)
T1 sequence (P10997 34-70 limits assumed): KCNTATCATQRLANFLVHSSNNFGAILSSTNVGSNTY
Description: (§1) Kinetic assays were conducted on a FlexStation 3 Multi-Mode Microplate reader from Molecular Devices (Sunnyvale, Calif., USA). Experiments were conducted in triplicate in a 96-well plate with a final volume of 200 μL per well. Every measurement was an average of 50 readings. The aggregation of an amyloidogenic peptide (Aβ40, Aβ42, or IAPP) was initiated by the addition of the peptide from a stock solution (in DMSO, 0.5-1 mM) to phosphate buffer. The final concentration of each peptide was different based on their aggregation. The stoichiometry of ThT dye for each peptide was 0.5:1 (ThT:peptide). Peptide aggregation was monitored by ThT fluorescence (λex=445 nm and λem=485 nm). The blank sample contained all the components of the peptide samples except the peptide. The sample data were processed by subtracting the fluorescence of the blank sample. The fluorescence intensity data was then normalized by setting the maximum value to 1.
(§2) Kinetic assays in the presence of the compounds of the invention were conducted under the same conditions. The small molecules were added from a stock solution (1 mM or 10 mM in DMSO) to keep the final concentration of DMSO less than 1.0% (v/v). Small molecules were added to the wells with ThT and buffer and mixed gently with a pipette before adding the peptide. To keep the conditions identical, an equal amount of DMSO was added to the wells with the peptide-only control reactions.
(§3) Kinetic profiles were processed using Origin (version 9.1). Kinetic curves were fit using the built-in sigmoidal fit. Each run was fit independently to extract the t50 (time required to reach 50% of the maximum fluorescence intensity). Error bars represent standard deviations from the mean of at least three independent experiments.

Aβ42 = target: T2, Aβ42 (Homo sapiens, UniProt P05067); assay: ThT-based kinetic assay of Aβ42 aggregation; assay type: biochemical; details: for effect on Aβ42 oligomerization/fibrillation (ThT): equimolar ratio
T2 construct: Cleavage of APP results in several Aβ isoforms; The predominant species are Aβ42 and Aβ40; purchased Anaspec (Fremont, Calif., USA)
T2 sequence (P05067 672-713 limits assumed): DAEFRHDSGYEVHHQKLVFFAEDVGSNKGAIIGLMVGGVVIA
Description: The aggregation of Aβ42 was monitored using an established exogenous dye, Thioflavin T (ThT) that intercalates between the amyloid fibers along the perpendicular axis without affecting the kinetics of amyloid formation. (see Wolfe, L. S.; Calabrese, M. F.; Nath, A.; Blaho, D. V.; Miranker, A. D.; Xiong, Y. Proc. Natl. Acad. Sci. U.S.A. 2010, 107, 16863-16868; Levine, H. Protein Sci. 1993, 2, 404-410). A representative ThT-based kinetic assay results are depicted in FIG. 2. The oligomerization reaction of Aβ42 was initiated by diluting a 1 mM stock solution of Aβ42 (in DMSO) to a concentration of 20 μM in phosphate buffer (150 mM KCl, 50 mM NaPi, pH 7.4). Aβ42 fibrillation is a nucleation-dependent polymerization process and is characterized by a sigmoidal curve consisting of a lag phase, an elongation phase, and a plateau phase (FIG. 2a). The kinetic reaction was quantified by extracting t50, which is the time required to reach 50% of the maximum fluorescence that results from fibrillation. Under standard conditions the tso for Aβ42 fibrillation was 2.1±0.2 h (FIG. 2a and FIG. 8).
as §1, §2, §3
In the delayed addition experiments, where the oligopyridylamides were added at various time points during Aβ amyloid reaction, the conditions were same (as used for the assays where Aβ was preincubated with the oligopyridylamides). The Aβ oligomerization process was initiated by dissolving Aβ into buffer solution and then oligopyridylamides were added to this solution at indicated time points (depend on the assay) at an equimolar ratio.

Aβ12-28 = target: T3, Aβ12-28 (Homo sapiens, UniProt P05067); assay: Circular dichroism (CD) spectroscopy of Aβ12-28; assay type: biochemical; details: Aβ12-28, 20% TFE, equimolar ratio
T3 construct: Aβ12-28, a well-characterized subdomain of Aβ42; purchased Anaspec (Fremont, Calif., USA)

[2] = target: T4, Nα-amino-terminal fluorescein-labeled Aβ40 (Homo sapiens, UniProt P05067); assay: Fluorescence titration; details: 20 mM NaPi, 1% TFE, pH 7.4; read-out: apparent binding affinity (app. Kd)
T4 construct: fluorescein-labeled Aβ40 was purchased from Anaspec (Fremont, Calif., USA); purchased Anaspec (Fremont, Calif., USA)
T4 sequence (P05067 672-711 limits assumed): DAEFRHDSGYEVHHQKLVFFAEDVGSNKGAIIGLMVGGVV
Description: N^α-amino-terminal fluorescein-labeled Aβ40 was purchased from Anaspec (Fremont, Calif., USA) and used without further purification. To ensure the monomeric state of N^α-amino-terminal fluorescein-labeled Aβ40, the peptide was treated similar to other peptides and stored at −80° C. in the dark until use. Fluorescence measurements were performed on a FlexStation 3 Multi-Mode Microplate reader from Molecular Devices (Sunnyvale, Calif., USA). Fluorescence titrations were conducted in triplicate in a 96-well plate with a final well volume of 200 μL. For fluorescence measurements, the fluorescein dye was excited at 492 nm and the spectra were recorded from 500 nm to 600 nm. […] The plot was fitted using a sigmoidal fit to extract the apparent binding affinity.

IAPP [3] = target: T1, IAPP; assay: Lipid (LUV) catalyzed IAPP aggregation, ThT; assay type: biochemical; details: 10 μM IAPP, LUVs (DOPG:DOPC 1:1, 600 μM), equimolar ratio
Description: LUVs were prepared using an equimolar ratio of dioleoylphosphatidylglycerol (DOPG) and dioleoylphosphatidylcholine (DOPC). A solution of DOPG and DOPC (10 mg/mL each) in chloroform was mixed, dried over a stream of argon (g) for 1 h, and then lyophilized for 6 h (0.1×10^−3 bar). The solid was then rehydrated in 1 mL phosphate buffer for 30 min. The turbid solution (10 mg/mL, 1:1, DOPG:DOPC) was then extruded (21 times) through 100 nm diameter filters (Whatman, GE Healthcare, Marlborough, Mass., USA). The concentration of the phospholipid content in the extruded material was confirmed by calculating total phosphorus using total phosphate assay as described in Chen, P. S.; Toribara, T. Y.; Warner, H. Anal. Chem. 1956, 28, 1756-1758.
The effect of the α-helical mimetics was also assessed on the membrane associated α-helical conformation of IAPP.

Aβ40 = target: T5, Aβ40 (Homo sapiens, UniProt P05067); assay: ThT-based kinetic assay of Aβ40 aggregation; assay type: biochemical; details: equimolar ratio
T5 construct: Cleavage of APP results in several Aβ isoforms; The predominant species are Aβ42 and Aβ40; purchased Anaspec (Fremont, Calif., USA)
T5 sequence (P05067 672-711 limits assumed): as above
Description: as §1
Kinetic assays in the presence of the compounds of the invention were conducted under the same conditions. The small molecules were added from a stock solution (1 mM or 10 mM in DMSO) to keep the final concentration of DMSO less than 1.0% (v/v). […]
Kinetic profiles were processed using Origin (version 9.1). […] Each run was fit independently to extract the t50 (time required to reach 50% of the maximum fluorescence intensity). […]

Row | conformation of Aβ12-28 (far UV-CD) (Aβ12-28) | Kd [2] [nM] | rel. t50 of IAPP fibrillation (IAPP [3]) | effect on aggregation of IAPP (ThT) (IAPP [1]; 20 μM IAPP, equimolar ratio (FIG. 3b, 3c, 13)) | change in ThT fluorescence intensity in control reaction (Aβ42; control reaction without Aβ42, matched conditions) | ThT fluorescence intensity characteristic of Aβ42 oligomers (Aβ42; sub-stoichiometric ratios of 1:0.5 and 1:0.1 (Aβ42:ADH-41)) [%] | SMILES | effect on IAPP fibrillation / amyloid formation (ThT) (IAPP [1]) | effect on Aβ42 oligomerization/fibrillation (ThT) (Aβ42) | effect on Aβ40 aggregation (ThT) (Aβ40)
1 | – | – | – | – | – | – | COC(=O)c1ccc(NC(=O)c2ccc(NC(=O)c3ccc(NC(=O)c4ccc([N+](=O)[O-])c(OCC(C)C)n4)c(OCc4ccccc4)n3)c(OCC(=O)O)n2)c(OCC(=O)O)n1 [ADH-31] | completely suppressed | wholly suppressed | –
2 | strong α-helical conformation | 1400 ± 200 | 0.8±0.2 | agonist | no change | < 10 | COC(=O)c1ccc(NC(=O)c2ccc(NC(=O)c3ccc([N+](=O)[O-])c(OCc4ccccc4)n3)c(OCCCN)n2)c(OCCCN)n1 [ADH-41] | did not have any effect; also recorded: no effect | completely inhibited; also recorded: effectively blocks; also recorded: decreased significantly | decreased significantly; also recorded: completely arrested
